Reference: patent US20240190904A1, “Heteroaryl compounds as inhibitors of RIP2 kinase, composition and application thereof” (Accro Bioscience (HK) Limited, priority 2021, published 2024)

Legend:
Type in all cases: in vivo
[1] = Pharmacokinetic evaluation in rats; details: for AUC / Vd / clearance / half-life / Cmax / Tmax: male, plasma; for AUC / Vd / clearance / half-life / Cmax / Tmax / F: rat
Method: The rat pharmacokinetic characteristics of compounds were tested by standard protocols. The candidate compounds were made into clear solution for single intravenous injection (i.v.) and suspension for oral administration (p.o.). Intravenous vehicle is 5% DMSO+95% Saline while oral vehicle is 0.5% CMCNa. The experiment used 9 male rats and 3 rats for intravenous at a dose of 2 mg/kg. Plasma samples were collected at 0 h (before dosing) and 0.083 h, 0.25 h, 0.5 h, 1 h, 2 h, 4 h, 8 h, 24 h after dosing. 3 rats were orally administrated at a dose of 10 mg/kg and 3 rats were orally administrated at a dose of 100 mg/kg. Plasma samples were collected at 0 h (before dosing) and 0.25 h, 0.5 h, 1 h, 2 h, 4 h, 6 h, 8 h, 24 h after dosing.
(§1) Blood samples were placed in tubes containing K2-EDTA and stored on ice until centrifuged. The blood samples were centrifuged at 6800 g for 6 minutes at 2-8° C. within 1 h after collected and stored frozen at approximately −80° C.
(§2) The analytical results were confirmed using quality control samples for intra-assay variation. The accuracy of >66.7% of the quality control samples and 50% of all QC samples at each concentration level were between 80-120% of the known value(s).
(§3) Standard set of parameters including Area Under the Curve (AUC(0-t) and AUC(0-∞)), elimination half-live (T1/2), maximum plasma concentration (Cmax), time to reach maximum plasma concentration (Tmax) were calculated using noncompartmental analysis modules in FDA certified pharmacokinetic program Phoenix WinNonlin 7.0 (Pharsight, USA) by the Study Director.

[2] = Pharmacokinetic evaluation in mice; details: for AUC / Vd / clearance / half-life / Cmax / Tmax: male, mouse, plasma
Method: The mice pharmacokinetic characteristics of compounds were tested by standard protocols. The candidate compounds were made into clear solution for single intravenous injection (i.v.) and suspension for oral administration (p.o.). Intravenous vehicle is 5% DMSO+95% Saline while oral vehicle is 0.5% CMCNa. The experiment used 48 male mice and 24 mice for intravenous at a dose of 2 mg/kg. Plasma samples were collected at 0 h (before dosing) and 0.083 h, 0.25 h, 0.5 h, 1 h, 2 h, 4 h, 8 h, 24 h after dosing. Another 24 mice were orally administrated with a dose of 10 mg/kg. Plasma samples were collected at 0 h (before dosing) and 0.25 h, 0.5 h, 1 h, 2 h, 4 h, 6 h, 8 h, 24 h after dosing.
as §1, §2, §3

[3] = Pharmacokinetic evaluation in beagle dog; details: for AUC / Vd / clearance / half-life / Cmax / Tmax: plasma
Method: The beagle dog pharmacokinetic characteristics of compounds were tested by standard protocols. The candidate compounds were made into clear solution for single intravenous injection (i.v.) and suspension for oral administration (p.o.). Intravenous vehicle is 5% DMSO+95% Saline while oral vehicle is 0.5% CMCNa. The experiment used 9 dogs. The dogs for intravenous at a dose of 1 mg/kg. Plasma samples were collected at 0 h (before dosing) and 0.083 h, 0.25 h, 0.5 h, 1 h, 2 h, 4 h, 8 h, 24 h after dosing. Three dogs were orally administrated at a dose of 5 mg/kg. Another 3 dogs were orally administrated at a dose of 15 mg/kg or 30 mg/kg. Plasma samples were collected at 0 h (before dosing) and 0.25 h, 0.5 h, 1 h, 2 h, 4 h, 6 h, 8 h, 24 h after dosing.
as §1, §2, §3

Structure (SMILES)	plasma exposure and bioavailability in rat (in words) [1]	AUC ([1]; iv, i.v. 2 mg/kg)	Vd ([1]; iv, i.v. 2 mg/kg)	clearance ([1]; iv, i.v. 2 mg/kg)	half-life ([1]; iv, i.v. 2 mg/kg)	AUC ([1]; po, p.o. 10 mg/kg)	Cmax ([1]; po, p.o. 10 mg/kg)	Tmax ([1]; po, p.o. 10 mg/kg)	Cmax ([1]; po, p.o. 100 mg/kg)	Tmax ([1]; po, p.o. 100 mg/kg)	F ([1]; p.o. 10 mg/kg)	F ([1]; p.o. 100 mg/kg)	plasma exposure and bioavailability in mice (in words) [2]	AUC ([2]; iv, i.v. 2 mg/kg)	Vd ([2]; iv, i.v. 2 mg/kg)	clearance ([2]; iv, i.v. 2 mg/kg)	half-life ([2]; iv, i.v. 2 mg/kg)	AUC ([2]; po, p.o. 10 mg/kg)	Cmax ([2]; po, p.o. 10 mg/kg)	Tmax ([2]; po, p.o. 10 mg/kg)	further results
COc1cc2nccc(Nc3ccc4scnc4c3)c2cc1P(C)(C)=O [A6]	excellent plasma exposure and bioavailability	7890 ng·h/mL	0.6 L/kg	4.2 mL/min/kg	102 min	18800 ng·h/mL	3320 ng/mL	3.3 h	68400 ng/mL	4.7 h	48%	185%	excellent plasma exposure and bioavailability	2990 ng·h/mL	1.1 L/kg	11.1 mL/min/kg	72 min	19200 ng·h/mL	9610 ng/mL	30 min	AUC ([1]; po, p.o. 100 mg/kg): 729000 ng·h/mL; F ([2]; p.o. 10 mg/kg): 129%; plasma exposure and bioavailability in beagle dog (in words) [3]: excellent plasma exposure and bioavailability; F ([3]; p.o. 5 mg/kg): 131%; F ([3]; p.o. 30 mg/kg): 184%; AUC ([3]; iv, i.v. 1 mg/kg): 1640 ng·h/mL; Vd ([3]; iv, i.v. 1 mg/kg): 1.7 L/kg; clearance ([3]; iv, i.v. 1 mg/kg): 9.5 mL/min/kg; half-life ([3]; iv, i.v. 1 mg/kg): 126 min; AUC ([3]; po, p.o. 5 mg/kg): 10800 ng·h/mL; Cmax ([3]; po, p.o. 5 mg/kg): 2190 ng/mL; Tmax ([3]; po, p.o. 5 mg/kg): 0.7 h; AUC ([3]; po, p.o. 30 mg/kg): 90800 ng·h/mL; Cmax ([3]; po, p.o. 30 mg/kg): 8630 ng/mL; Tmax ([3]; po, p.o. 30 mg/kg): 2.7 h
CP(C)(=O)c1cc2c(Nc3ccc4scnc4c3)ccnc2cc1OC(F)(F)F [A24]	excellent plasma exposure and bioavailability	26500 ng·h/mL	0.19 L/kg	1.2 mL/min/kg	1080 min	248000 ng·h/mL	20400 ng/mL	1.8 h	197000 ng/mL	24 h	187%	244%	excellent plasma exposure and bioavailability	22600 ng·h/mL	0.27 L/kg	1.5 mL/min/kg	132 min	89100 ng·h/mL	16200 ng/mL	48 min	F ([2]; p.o. 10 mg/kg): 79%; plasma exposure and bioavailability in beagle dog (in words) [3]: excellent plasma exposure and bioavailability; F ([3]; p.o. 5 mg/kg): 212%; F ([3]; p.o. 15 mg/kg): 88%; AUC ([3]; iv, i.v. 1 mg/kg): 3800 ng·h/mL; Vd ([3]; iv, i.v. 1 mg/kg): 0.7 L/kg; clearance ([3]; iv, i.v. 1 mg/kg): 4.3 mL/min/kg; half-life ([3]; iv, i.v. 1 mg/kg): 114 min; AUC ([3]; po, p.o. 5 mg/kg): 40300 ng·h/mL; Cmax ([3]; po, p.o. 5 mg/kg): 9720 ng/mL; Tmax ([3]; po, p.o. 5 mg/kg): 1.1 h; AUC ([3]; po, p.o. 15 mg/kg): 50400 ng·h/mL; Cmax ([3]; po, p.o. 15 mg/kg): 13300 ng/mL; Tmax ([3]; po, p.o. 15 mg/kg): 3 h
